Results as given in ChEMBL document CHEMBL1201862, “PubChem BioAssay data set” (2004).
The source made the active and inactive calls.

What was measured:
[1] = microbe, parasite or virus in culture; type: functional; settings: Mycobacterium tuberculosis
[2] = Luminescence Cell-Based Dose Retest to Confirm Inhibitors of Cancer Stem Cells. [Related pubchem assays (depositor defined):AID2717, AID2721]; type: functional; settings: Homo sapiens
[3] = target: T1, DNA repair protein RAD52 homolog (Homo sapiens, UniProt P43351); type: functional, biochemical
T1 sequence (P43351 whole entry): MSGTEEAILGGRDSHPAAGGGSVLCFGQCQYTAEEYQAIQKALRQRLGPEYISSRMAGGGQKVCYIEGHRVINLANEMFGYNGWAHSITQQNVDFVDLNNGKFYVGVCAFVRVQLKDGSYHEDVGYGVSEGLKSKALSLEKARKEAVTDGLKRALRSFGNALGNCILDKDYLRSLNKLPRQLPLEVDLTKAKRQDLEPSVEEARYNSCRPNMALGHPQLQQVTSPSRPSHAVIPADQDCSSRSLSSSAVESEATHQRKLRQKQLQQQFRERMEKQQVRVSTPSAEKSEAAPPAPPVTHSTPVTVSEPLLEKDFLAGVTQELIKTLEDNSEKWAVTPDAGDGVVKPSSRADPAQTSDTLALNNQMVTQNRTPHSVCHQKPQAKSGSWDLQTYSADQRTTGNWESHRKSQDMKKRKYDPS

[4] = growth suppression of PTEN-null colon cells, dose response, cell-based, HCT116 PTEN knockout (AID 1047); type: functional;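 note: HCT116 colon tumor cells with PTEN knocked out; cells exposed to compound for 60 hours before readout; potency for loss of cell viability measured by luminescence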
[5] = growth suppression of beta-catenin-knockout colon cells, dose response, cell-based, HCT116, human colon tumor (AID 1045); type: functional;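 note: HCT116 colon tumor cells with beta catenin knocked out; cells exposed to compound for 60 hours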
INS1 = experiment: beta cell apoptosis inhibitors, cytokine rescue, dose response, luminescence, retest (AID 449756); type: functional, cell-based; settings: Rattus norvegicus;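 note: cell death triggered by IL-1 beta plus TNF-alpha plus IFN-gamma mixture; protective hits raise ATP signal compared with cytokine alone wells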
Leucine aminopeptidase = target: T2, Leucine aminopeptidase (Plasmodium falciparum 3D7, UniProt Q8IL11); experiment: P. falciparum M17LAP inhibitors, primary screen, biochemical, fluorogenic H-Leu-NHMec substrate, 1536-well (AID 1619); type: functional
T2 sequence (Q8IL11 whole entry): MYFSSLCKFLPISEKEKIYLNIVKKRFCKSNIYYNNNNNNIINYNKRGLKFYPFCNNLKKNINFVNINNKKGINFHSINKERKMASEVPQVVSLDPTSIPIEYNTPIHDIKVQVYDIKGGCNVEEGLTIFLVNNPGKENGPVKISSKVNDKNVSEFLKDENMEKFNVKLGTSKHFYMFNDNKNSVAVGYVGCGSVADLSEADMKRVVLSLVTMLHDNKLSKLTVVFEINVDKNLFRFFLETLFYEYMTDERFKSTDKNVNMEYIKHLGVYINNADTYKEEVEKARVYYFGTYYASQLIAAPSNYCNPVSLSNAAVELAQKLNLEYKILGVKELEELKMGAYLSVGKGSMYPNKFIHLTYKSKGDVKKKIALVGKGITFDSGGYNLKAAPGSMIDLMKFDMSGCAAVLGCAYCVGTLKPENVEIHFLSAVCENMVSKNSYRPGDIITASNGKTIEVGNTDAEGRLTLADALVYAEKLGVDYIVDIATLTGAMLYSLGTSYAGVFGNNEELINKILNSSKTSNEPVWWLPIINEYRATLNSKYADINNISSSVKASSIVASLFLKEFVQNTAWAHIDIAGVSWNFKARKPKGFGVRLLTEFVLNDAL

[6] = target: T3, Calpain-2 catalytic subunit (Sus scrofa, UniProt P43367); experiment: pig calpain II inhibitor potency, dose response, biochemical, fluorogenic peptide substrate (AID 1420); type: functional
T3 sequence (P43367 whole entry): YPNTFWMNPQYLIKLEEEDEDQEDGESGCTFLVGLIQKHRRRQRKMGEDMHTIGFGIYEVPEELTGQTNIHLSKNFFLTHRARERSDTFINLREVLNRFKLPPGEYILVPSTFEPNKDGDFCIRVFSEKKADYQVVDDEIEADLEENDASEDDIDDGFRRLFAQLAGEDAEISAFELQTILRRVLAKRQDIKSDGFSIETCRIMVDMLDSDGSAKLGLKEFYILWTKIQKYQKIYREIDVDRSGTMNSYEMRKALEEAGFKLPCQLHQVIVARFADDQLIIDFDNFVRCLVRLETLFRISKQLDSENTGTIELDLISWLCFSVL

Fatty acid synthase [7] = target: T4, Fatty acid synthase (Homo sapiens, UniProt P49327); experiment: FAS thioesterase domain inhibitors, dose response, biochemical, endpoint fluorescence intensity, uHTS hits (AID 624327); type: functional;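 note: fluorescence from hydrolysis of an O-methyl fluorescein acyl ester substrate by the enzyme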
Fatty acid synthase [8] = target: T4, Fatty acid synthase; experiment: FAS thioesterase domain inhibitors, dose response, biochemical, kinetic fluorescence intensity (AID 624326); type: functional;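 note: rate of fluorescence rise from hydrolysis of a fluorogenic O-methyl fluorescein ester substrate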
[9] = inhibitors of firefly luciferase expression or activity, dose response, H4 neuroglioma cells, luminescence (AID 1990); type: functional, cell-based
BJ [10] = experiment: cytotoxicity toward BJ-TERT fibroblasts, dose response, cell-based, RAS-independent, luminescence (AID 1933); type: functional; settings: Homo sapiens
[11] = Luminescence Cell-Based Dose Response HTS to Identify Inhibitors of 5'UTR Stem-Loop Driven Prion Protein mRNA Translation in H4 Neuroglioblastoma Cells. [Related pubchem assays: 1827 (Project Summary), 1813 (Primary HTS)]; type: functional
[12] = inhibitors of SNCA 5'UTR-driven reporter translation, confirmation, H4 neuroglioma cells, luminescence (AID 1988); type: functional, cell-based
BJ [13] = experiment: cells; type: functional, cell-based; settings: Homo sapiens
BJ [14] = experiment: cytotoxicity toward BJ-TERT-LT-ST fibroblasts, dose response, cell-based, RAS-independent, luminescence (AID 1935); type: functional; settings: Homo sapiens;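 note: BJ fibroblasts immortalized with TERT plus LT and ST oncogenes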
[15] = cytotoxicity toward DRD oncogenic fibroblasts, dose response, cell-based, non-viral oncogenic, luminescence (AID 1934); type: functional; settings: Homo sapiens
[16] = system: Streptococcus sp. 'group A'; experiment: growth inhibition of control SK(-) GAS strain, dose response, counter-screen for streptokinase expression inhibitor project, luminescence, kanamycin, BacTiterGlo, confirmation (AID 1900); type: functional, organism-based
[17] = target: Induced myeloid leukemia cell differentiation protein Mcl-1 (Homo sapiens, UniProt Q07820); type: functional
Streptococcus = experiment: Group A Streptococcus viability loss, dose response, counter-screen for streptokinase expression inhibitor project, luminescence, BacTiterGlo (AID 1915); type: functional, organism-based;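 note: potency for reduction of bacterial viability or growth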
cells [18] = type: functional, cell-based
cells [19] = type: functional, cell-based; remark: listed apart in the source
[20] = A cytotoxicity screen of small molecule inhibitors of the PhoP region in Salmonella typhi identified in the primary screen. [Related pubchem assays: 1850, 1864, 1985 ]; type: functional
[21] = inhibitors of intracellular T. cruzi replication, confirmation, NIH3T3 host cells, beta-gal luminescence (AID 2044); type: functional, cell-based;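 note: intracellular parasites grown in NIH/3T3 mouse fibroblasts as host cells; luminescent beta-galactosidase reporter signal from transgenic T. cruzi replicating inside host cells; inhibitors lower the luminescence signal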
[22] = cytotoxicity toward NIH3T3 fibroblasts, dose response, counter-screen, cell-based, ATP luminescence, mouse fibroblasts (AID 2010); type: functional;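 note: cells exposed to compound for about 90 hours before reading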
[23] = target: T5, Ubiquitin-conjugating enzyme E2 N (Homo sapiens, UniProt P61088); type: functional;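 note: Dose-response confirmation in a TR-FRET assay detecting UBC13-driven polyubiquitin chain formation, inhibition measured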
T5 sequence (P61088 whole entry): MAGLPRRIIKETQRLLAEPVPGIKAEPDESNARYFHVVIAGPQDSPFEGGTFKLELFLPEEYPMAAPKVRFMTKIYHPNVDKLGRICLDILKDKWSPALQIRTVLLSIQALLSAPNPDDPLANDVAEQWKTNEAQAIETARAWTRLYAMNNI

T4 sequence (P49327 whole entry, the tested form may be a part): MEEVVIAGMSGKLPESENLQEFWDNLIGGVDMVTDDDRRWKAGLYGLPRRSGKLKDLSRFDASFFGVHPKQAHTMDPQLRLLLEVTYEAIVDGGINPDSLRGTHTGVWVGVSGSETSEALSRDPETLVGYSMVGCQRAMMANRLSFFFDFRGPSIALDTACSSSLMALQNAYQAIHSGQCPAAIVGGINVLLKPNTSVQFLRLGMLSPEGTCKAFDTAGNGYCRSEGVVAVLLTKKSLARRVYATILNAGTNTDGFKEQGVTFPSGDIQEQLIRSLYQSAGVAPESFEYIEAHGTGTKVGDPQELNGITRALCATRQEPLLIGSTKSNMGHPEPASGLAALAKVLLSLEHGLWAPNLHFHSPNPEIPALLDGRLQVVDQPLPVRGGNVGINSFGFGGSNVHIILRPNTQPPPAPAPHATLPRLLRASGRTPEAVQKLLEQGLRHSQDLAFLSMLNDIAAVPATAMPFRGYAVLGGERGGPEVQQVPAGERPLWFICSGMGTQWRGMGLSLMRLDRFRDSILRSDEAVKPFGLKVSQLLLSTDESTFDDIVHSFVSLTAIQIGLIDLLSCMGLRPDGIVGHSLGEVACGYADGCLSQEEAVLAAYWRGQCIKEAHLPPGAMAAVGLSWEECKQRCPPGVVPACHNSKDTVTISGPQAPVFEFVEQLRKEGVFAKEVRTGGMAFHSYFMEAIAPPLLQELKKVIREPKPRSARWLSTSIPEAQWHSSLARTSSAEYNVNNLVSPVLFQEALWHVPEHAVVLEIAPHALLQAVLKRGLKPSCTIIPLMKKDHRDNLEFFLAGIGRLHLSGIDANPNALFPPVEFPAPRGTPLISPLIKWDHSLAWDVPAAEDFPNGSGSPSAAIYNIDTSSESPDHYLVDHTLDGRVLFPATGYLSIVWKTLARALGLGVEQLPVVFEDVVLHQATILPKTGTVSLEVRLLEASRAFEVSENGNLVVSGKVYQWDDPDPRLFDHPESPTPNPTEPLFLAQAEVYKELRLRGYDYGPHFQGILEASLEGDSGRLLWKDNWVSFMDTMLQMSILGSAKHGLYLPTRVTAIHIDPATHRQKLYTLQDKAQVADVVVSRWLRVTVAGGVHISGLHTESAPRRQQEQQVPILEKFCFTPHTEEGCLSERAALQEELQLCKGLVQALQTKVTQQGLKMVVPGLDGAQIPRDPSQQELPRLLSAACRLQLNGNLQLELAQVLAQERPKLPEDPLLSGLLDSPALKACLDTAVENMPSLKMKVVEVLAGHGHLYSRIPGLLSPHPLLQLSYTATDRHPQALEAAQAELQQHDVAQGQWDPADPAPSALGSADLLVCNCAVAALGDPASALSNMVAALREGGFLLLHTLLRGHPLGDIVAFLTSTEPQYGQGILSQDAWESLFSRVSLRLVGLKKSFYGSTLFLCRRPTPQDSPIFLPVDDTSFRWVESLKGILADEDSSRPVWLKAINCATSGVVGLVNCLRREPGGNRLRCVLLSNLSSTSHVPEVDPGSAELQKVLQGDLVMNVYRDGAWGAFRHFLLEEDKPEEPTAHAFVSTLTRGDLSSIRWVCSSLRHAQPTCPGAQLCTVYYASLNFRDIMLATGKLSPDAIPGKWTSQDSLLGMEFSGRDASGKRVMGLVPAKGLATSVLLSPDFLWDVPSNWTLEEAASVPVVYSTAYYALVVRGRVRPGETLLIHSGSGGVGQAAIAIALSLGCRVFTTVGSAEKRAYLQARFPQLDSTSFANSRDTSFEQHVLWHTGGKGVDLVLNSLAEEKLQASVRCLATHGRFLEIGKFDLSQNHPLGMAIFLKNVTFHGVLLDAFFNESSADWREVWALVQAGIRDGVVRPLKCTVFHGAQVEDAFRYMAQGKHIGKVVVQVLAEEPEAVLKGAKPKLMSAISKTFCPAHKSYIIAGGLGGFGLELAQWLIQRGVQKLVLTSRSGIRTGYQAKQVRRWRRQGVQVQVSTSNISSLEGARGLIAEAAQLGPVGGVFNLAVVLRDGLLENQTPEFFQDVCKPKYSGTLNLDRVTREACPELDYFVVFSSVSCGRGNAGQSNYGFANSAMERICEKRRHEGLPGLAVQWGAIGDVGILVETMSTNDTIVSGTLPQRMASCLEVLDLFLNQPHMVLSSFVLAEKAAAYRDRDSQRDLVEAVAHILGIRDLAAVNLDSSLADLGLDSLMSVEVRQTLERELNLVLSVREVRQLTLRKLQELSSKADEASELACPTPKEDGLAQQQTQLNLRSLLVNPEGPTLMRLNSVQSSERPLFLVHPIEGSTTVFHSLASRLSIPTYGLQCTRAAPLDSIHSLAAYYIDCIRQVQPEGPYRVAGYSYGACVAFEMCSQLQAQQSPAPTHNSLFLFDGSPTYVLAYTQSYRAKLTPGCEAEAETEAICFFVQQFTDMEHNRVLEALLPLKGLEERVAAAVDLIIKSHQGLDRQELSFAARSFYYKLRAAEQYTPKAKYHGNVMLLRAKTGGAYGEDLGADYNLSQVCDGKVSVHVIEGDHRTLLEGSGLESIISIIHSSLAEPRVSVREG
Induced myeloid leukemia cell differentiation protein Mcl-1, sequence (Q07820 whole entry): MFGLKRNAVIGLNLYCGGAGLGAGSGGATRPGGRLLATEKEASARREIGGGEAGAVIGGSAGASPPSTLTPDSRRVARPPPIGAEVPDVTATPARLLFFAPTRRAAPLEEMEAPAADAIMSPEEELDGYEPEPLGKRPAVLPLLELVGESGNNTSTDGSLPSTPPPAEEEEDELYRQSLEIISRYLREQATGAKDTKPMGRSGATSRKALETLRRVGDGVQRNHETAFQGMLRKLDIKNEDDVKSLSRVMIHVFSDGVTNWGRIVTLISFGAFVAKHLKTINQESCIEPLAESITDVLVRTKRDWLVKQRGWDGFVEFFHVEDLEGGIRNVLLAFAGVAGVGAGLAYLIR

Question: With COc1ccccc1C1c2ccc3ccccc3c2Oc2ncn(CCN(C)C)c(=N)c21 (stereo not given) as the compound, how does the CC50 [1] read?
Answer: 5.8 µM (active)

Question: What about the AC50 [2] of the same compound?
Answer: 2.72 µM (active)

Question: What about the AC50 [3] of the same compound?
Answer: 20.6 µM (active)

Question: With CCOC(=O)c1c(NC(=O)c2cc(-c3ccc(Cl)s3)nc3ccccc23)sc(C(N)=O)c1C as the compound, how does the EC50 [4] read?
Answer: 5.74 µM (active)

Question: What about the EC50 [5] of the same compound?
Answer: 7.35 µM (active)

Question: What about the AC50 (INS1) of the same compound?
Answer: 7.98 µM (active)

Question: Which IC50 (Leucine aminopeptidase) does the source give for O=C(Cn1cc(/C=N/O)c2ccccc21)N1CCOCC1 here?
Answer: 78.9 µM (active)

Question: With CCN(CC)CCNc1nc(-c2cccs2)c(CC(=O)O)s1 as the compound, how does the AC50 [3] read?
Answer: 14 µM (active)

Question: With CCOC(=O)[C@H]1O[C@@H]1C(=O)N[C@@H](CC(C)C)C(=O)NCCC(C)C [ALOXISTATIN] as the compound, how does the IC50 [6] read?
Answer: 1.77 µM (active)

Question: For COc1ccc([N+](=O)[O-])cc1NC(=O)C(C)OC(=O)/C=C/c1ccco1 (stereo not given), which IC50 (Fatty acid synthase [7]) is on record?
Answer: 3.26 µM (active)

Question: And the IC50 (Fatty acid synthase [8])?
Answer: 6.45 µM (active)

Question: Which results are given for CCOc1c(Br)cc(CNc2ccc3c(c2)OCCO3)cc1OC?
Answer: EC50 [9]: 4.32 µM (active); EC50 (BJ [10]): 2.12 µM (active); EC50 [11]: 3.63 µM (active); EC50 [12]: 0.31 µM (active); EC50 (BJ [13]): 17.7 µM (active); EC50 (BJ [14]): 1.41 µM (inconclusive); EC50 [15]: 1.29 µM (active)

Question: Which EC50 [9] does the source give for CCN(CC(=O)NCc1ccc(F)cc1)C(=O)/C=C/c1ccc(OC)c(S(=O)(=O)NC(C)C)c1 here?
Answer: > 120 µM (not active)

Question: What about the EC50 (BJ [10]) of the same compound?
Answer: 9.24 µM (inconclusive)

Question: And the EC50 [11]?
Answer: > 120 µM (not active)

Question: And the EC50 [12]?
Answer: 9.81 µM (active)

Question: What about the EC50 (BJ [13]) of the same compound?
Answer: 13.4 µM (active)

Question: And the EC50 (BJ [14])?
Answer: 4.34 µM (inconclusive)

Question: And the EC50 [15]?
Answer: 13.7 µM (inconclusive)

Question: Which EC50 [16] does the source give for O=C(O)c1ccc(N/N=C/c2ccc(-c3ccc(Cl)cc3Cl)o2)cc1 here?
Answer: 1.46 µM (active)

Question: What about the IC50 [17] of the same compound?
Answer: 3.56 µM (active)

Question: What about the EC50 (Streptococcus) of the same compound?
Answer: 2.33 µM (active)

Question: What about the IC50 (Fatty acid synthase [7]) of the same compound?
Answer: 7.07 µM (active)

Question: What about the IC50 (Fatty acid synthase [8]) of the same compound?
Answer: 3.65 µM (active)

Question: With CCCCCC(=O)NNC(=S)NC(=O)c1cccc([N+](=O)[O-])c1 as the compound, how does the IC50 (Leucine aminopeptidase) read?
Answer: 24.4 µM (active)

Question: And the EC50 (cells [18])?
Answer: > 350 µM (not active)

Question: What about the EC50 (cells [19]) of the same compound?
Answer: > 350 µM (not active)

Question: Which IC50 (Leucine aminopeptidase) does the source give for O=C(CN1C(=O)CCSc2ccccc21)Nc1ccc2c(c1)OCCO2 here?
Answer: 16.1 µM (active)

Question: With O=C(N/N=C/c1ccc(N2CCCC2)c([N+](=O)[O-])c1)c1cccnc1 as the compound, how does the EC50 [20] read?
Answer: > 50 µM (active)

Question: Which results are given for Cc1cc(OCC(=O)Nc2ccc3c(c2)OCCO3)cc(C)c1Cl?
Answer: EC50 (cells [18]): > 350 µM (not active); EC50 (cells [19]): > 350 µM (not active)

Question: For O=C(Oc1ccc2c(c1)OCO2)C12CC3CC(CC(C3)C1)C2, which IC50 [6] is on record?
Answer: 5.49 µM (not active)

Question: For Cc1ccc(S(=O)(=O)Cc2ccc(C(=O)N3CCN(c4ccc(F)cc4)CC3)o2)cc1, which EC50 [4] is on record?
Answer: 9.74 µM (active)

Question: What about the EC50 [5] of the same compound?
Answer: 10.1 µM (active)

Question: For CCc1ccc(OCC(O)CN2CCC(CN3C(=O)c4cccc5cccc(c45)C3=O)CC2)cc1 (stereo not given), which EC50 [21] is on record?
Answer: 1.84 µM (active)

Question: And the EC50 [4]?
Answer: 6.53 µM (active)

Question: And the EC50 [22]?
Answer: > 60 µM (not active)

Question: And the EC50 [5]?
Answer: 5.43 µM (active)

Question: What about the IC50 [23] of the same compound?
Answer: > 20 µM (inactive)
